Laboratory results: ChEMBL document CHEMBL1833962, “Benzotriazinone and benzopyrimidinone derivatives as potent positive allosteric AMPA receptor modulators” (2011)
Calls of active or inactive are those of the source. No cut-off for these calls is given here.

Tests used:
Rattus norvegicus [1] = organism: Rattus norvegicus; assay: Positive allosteric modulation of AMPA receptor in Sprague-Dawley rat hippocampal neuron assessed as glutamate-induced response pre-treated for 20 secs by patch-clamp electrophysiology; type: tissue-based; details: Hippocampus
Rattus norvegicus [2] = assay: Positive allosteric modulation of AMPA receptor in anesthetized Long-Evans rat assessed as amplitude increase by measuring evoked hilar excitatory post-synaptic field potentials at 5 mg/kg, ip for every 20 secs up to 80 to 100 mins by electrophysiology assay; type: functional
Rattus norvegicus [3] = assay: Memory enhancing effect in Long-Evans rat assessed as increase in tetanic stimulation of hippocampal long term potentiation at 1 mg/kg, ip; type: functional, organism-based; parameters: dose 1 mg/kg; details: Hippocampus
Rattus norvegicus [4] = assay: Positive allosteric modulation of AMPA receptor in anesthetized Long-Evans rat assessed as amplitude increase by measuring evoked hilar excitatory post-synaptic field potentials at 2 mg/kg, ip for every 20 secs up to 80 to 100 mins; type: functional; details: route intraperitoneal
Rattus norvegicus [5] = assay: Positive allosteric modulation of AMPA receptor in anesthetized Long-Evans rat assessed as amplitude increase by measuring evoked hilar excitatory post-synaptic field potentials at 3 mg/kg, ip for every 20 secs up to 80 to 100 mins by electrophysiology assay; type: functional; details: route intraperitoneal
Rattus norvegicus [6] = assay: Positive allosteric modulation of AMPA receptor in anesthetized Long-Evans rat assessed as amplitude increase by measuring evoked hilar excitatory post-synaptic field potentials at 0.5 mg/kg, iv for every 20 secs up to 80 to 100 mins by electrophysiology assay; type: functional
Rattus norvegicus [7] = assay: Positive allosteric modulation of AMPA receptor in anesthetized Long-Evans rat assessed as amplitude increase by measuring evoked hilar excitatory post-synaptic field potentials at 1 mg/kg, ip for every 20 secs up to 80 to 100 mins by electrophysiology assay; type: functional; details: route intraperitoneal
Rattus norvegicus [8] = assay: Positive allosteric modulation of AMPA receptor in anesthetized Long-Evans rat assessed as amplitude increase by measuring evoked hilar excitatory post-synaptic field potentials at 10 mg/kg, ip for every 20 secs up to 80 to 100 mins by electrophysiology assay; type: functional; details: route intraperitoneal
Rattus norvegicus [9] = assay: Positive allosteric modulation of AMPA receptor in anesthetized Long-Evans rat assessed as amplitude increase by measuring evoked hilar excitatory post-synaptic field potentials at 1 mg/kg, iv for every 20 secs up to 80 to 100 mins by electrophysiology assay; type: functional

| SMILES | CD (Rattus norvegicus [1]) | Activity (Rattus norvegicus [2]; route intraperitoneal) | further results |
| --- | --- | --- | --- |
| CC[C@H](Cc1cccc(F)c1)n1nnc2cc3c(cc2c1=O)OC1CCCN1C3=O (stereo partly specified) | 0.021 µM | 2% |  |
| COC(=O)[C@@H](Cc1ccccc1)N1COc2cc3c(cc2C1=O)OC1CCCN1C3=O (stereo partly specified) | 48 µM |  |  |
| C[C@H](Cn1nccn1)n1cnc2cc3c(cc2c1=O)OC1CCCN1C3=O (stereo partly specified) | 0.45 µM | 7% |  |
| C[C@H](Cn1ncnn1)n1nnc2cc3c(cc2c1=O)OCN(C1CC1)C3=O | 0.46 µM | 33% | Activity (Rattus norvegicus [3]): Active |
| C[C@H](Cn1ncnn1)n1cnc2cc3c(cc2c1=O)OC1CCCN1C3=O (stereo partly specified) | 0.03 µM | 22% |  |
| C#C[C@H](Cc1cccc(F)c1)n1nnc2cc3c(cc2c1=O)OC1CCCN1C3=O (stereo partly specified) | 0.004 µM |  | Activity (Rattus norvegicus [4]): 5% |
| O=C1c2cc3ncn(C4CC4)c(=O)c3cc2OC2CCCN12 (stereo unspecified) | 6.7 µM |  |  |
| C[C@H](Cn1cnnn1)n1nnc2cc3c(cc2c1=O)OC1CCCN1C3=O (stereo partly specified) | 0.015 µM | 10% |  |
| CC[C@H](Cn1cc(Cl)cn1)n1cnc2cc3c(cc2c1=O)OC1CCCN1C3=O (stereo partly specified) | 0.0084 µM |  | Activity (Rattus norvegicus [5]): 4% |
| O=C1c2cc3c(cc2OCN1CC(O)c1ccccc1)C(=O)N1CCCC1O3 (racemic) | 1 µM |  |  |
| O=C1c2cc3c(cc2OCN1CCc1ccccc1)C(=O)N1CCCC1O3 (stereo unspecified) | 0.25 µM |  |  |
| O=C1c2cc3ncn(CCc4cccc(F)c4)c(=O)c3cc2OC2CCCN12 (stereo unspecified) | 0.0037 µM |  | Activity (Rattus norvegicus [6]): 21%; Activity (Rattus norvegicus [5]): 27% |
| O=C1c2cc3c(cc2OCN1CC(F)(F)c1cccc(F)c1)C(=O)N1CCCC1O3 (stereo unspecified) | 1.5 µM |  |  |
| C[C@H](Cn1cnnn1)n1nnc2cc3c(cc2c1=O)OCN(C1CC1)C3=O | 0.19 µM | 7% |  |
| O=C(CN1COc2cc3c(cc2C1=O)OC1CCCN1C3=O)c1ccccc1 (stereo unspecified) | 100 µM |  |  |
| C#CCn1nnc2cc3c(cc2c1=O)OC1CCCN1C3=O (stereo unspecified) | 0.14 µM |  | Activity (Rattus norvegicus [2]): inactive |
| C#C[C@H](Cc1cc(F)cc(F)c1)n1nnc2cc3c(cc2c1=O)OC1CCCN1C3=O (stereo partly specified) | 0.0029 µM | 34% |  |
| COC(=O)[C@H](Cc1ccccc1)N1COc2cc3c(cc2C1=O)OC1CCCN1C3=O (stereo partly specified) | 0.28 µM |  |  |
| O=C1c2cc3ncn(CCc4ccccc4)c(=O)c3cc2OC2CCCN12 (stereo unspecified) | 0.13 µM | 2% |  |

| SMILES | CD (Rattus norvegicus [1]) | Activity (Rattus norvegicus [2]; route intraperitoneal) | further results |
| --- | --- | --- | --- |
| C[C@H](Cn1cc(Cl)cn1)n1cnc2cc3c(cc2c1=O)OC1CCCN1C3=O (stereo partly specified) | 0.0069 µM |  | Activity (Rattus norvegicus [7]): 2% |
| COC(CN1COc2cc3c(cc2C1=O)OC1CCCN1C3=O)c1ccccc1 (racemic) | 7.4 µM |  |  |
| C#C[C@H](Cc1cccc(F)c1)n1nnc2cc3c(cc2c1=O)OCN(C1CC1)C3=O | 0.2 µM | 10% |  |
| CC(C)(CN1COc2cc3c(cc2C1=O)OC1CCCN1C3=O)c1cccc(F)c1 (stereo unspecified) | 17 µM |  |  |
| C#CCn1cnc2cc3c(cc2c1=O)OC1CCCN1C3=O (stereo unspecified) | 0.13 µM |  | Activity (Rattus norvegicus [2]): inactive |
| C#C[C@H](Cc1ccccc1)N1COc2cc3c(cc2C1=O)OC1CCCN1C3=O (stereo partly specified) | 0.32 µM |  |  |
| C#C[C@H](Cc1cccc(F)c1)N1COc2cc3c(cc2C1=O)OC1CCCN1C3=O (stereo partly specified) | 0.004 µM |  |  |
| Cn1nnc2cc3c(cc2c1=O)OC1CCCN1C3=O (stereo unspecified) | 0.68 µM |  | Activity (Rattus norvegicus [2]): inactive |
| O=C1c2cc3nnn(C4CC4)c(=O)c3cc2OC2CCCN12 (stereo unspecified) | 0.4 µM |  | Activity (Rattus norvegicus [8]): 3% |
| O=C1c2cc3c(cc2OCN1CCc1cccc(F)c1)C(=O)N1CCCC1O3 (stereo unspecified) | 0.011 µM | 2% | Activity (Rattus norvegicus [9]): 28% |
| O=C1c2cc3nnn(CCn4cccn4)c(=O)c3cc2OC2CCCN12 (stereo unspecified) | 0.1 µM |  | Activity (Rattus norvegicus [2]): inactive |
| C#C[C@H](Cc1cccc(F)c1)n1cnc2cc3c(cc2c1=O)OC1CCCN1C3=O (stereo partly specified) | 0.006 µM |  | Activity (Rattus norvegicus [4]): 12% |
| C[C@@H](Cn1cc(Cl)cn1)n1cnc2cc3c(cc2c1=O)OC1CCCN1C3=O (stereo partly specified) | inactive |  |  |
| C[C@H](Cn1ncnn1)n1nnc2cc3c(cc2c1=O)OC1CCCN1C3=O (stereo partly specified) | 0.042 µM | 39% |  |
| O=C1c2cc3nnn(CCc4cccc(F)c4)c(=O)c3cc2OC2CCCN12 (stereo unspecified) | 0.0031 µM | 24% | Activity (Rattus norvegicus [9]): 24% |
| C#C[C@H](Cc1cc(F)cc(F)c1)n1cnc2cc3c(cc2c1=O)OC1CCCN1C3=O (stereo partly specified) | 0.002 µM |  | Activity (Rattus norvegicus [7]): 30% |
| O=C1c2cc3ncn(CCn4cc(Cl)cn4)c(=O)c3cc2OC2CCCN12 (stereo unspecified) | 0.019 µM |  | Activity (Rattus norvegicus [5]): 3% |
| O=C1c2cc3ncn(CCn4cccn4)c(=O)c3cc2OC2CCCN12 (stereo unspecified) | 0.17 µM |  | Activity (Rattus norvegicus [2]): inactive |
